Consider ten compounds from patent US4073917A, “Local anesthetics tertiary aminoalkoxyphenyl ethers” (priority 1974, dated 1978).

What is called LD50 is the dose at which mortality reaches 50%.

Molecules are shown by their SMILES.

One data set deals with sciatic nerve. Nature of the data set: infiltration anesthesia, sciatic nerve block in the intact guinea-pig (Shackell). It is filed as in vivo. How it is done: B. The compounds according to the invention were also tested as to onset and duration of local anesthetic effect at parenteral administration (infiltration anesthesia). […] Four animals were used at each test. The results are depicted in the following table:
The reference compound being used at this test is 2-(N-ethyl-n-propylamino)-2',6'-n-butyroxylidide (etidocaine).

For a further data set, the system named is mice. The note with it: s.c.; taken from Adams et al; cited from earlier work.
Data set [1] deals with back of the guinea-pig (intact skin). Nature of the data set: surface anesthesia by epicutaneous application to intact skin, pricking test as in the intracutaneous wheal test. It is filed as in vivo, guinea-pig (Dunkin-Hartley, males). The note with it: for Local anesthetic efficiency (percentage block during the 25 min testing period): ± s.e.m. From the text: A. Guinea-pigs (Dunkin-Hartley, males, 4-6 weeks of age 350±50 g) were shaved and depilated. A gauze folded twice (23 mm diameter) was put into the test solution and thereafter in a plastic cup (outer diameter 26 mm, inner diameter 24 mm, inner height 4 mm). The cup with the gauze saturated with test solution was attached to the back of the animal as an occlusive dressing fastened with plaster (25 mm width) wound around the body). […] After the end of the contact time the site of contact was washed and marked with a fatty chalk. With a sharp instrument (e.g. cannula or a pair of tweezers) the place was pricked six times and registering was made as in the intracutaneous wheal test (Bulbring-Wajda: J. Pharmacol., 1945, 85, p 78) on the back of the guinea-pig, i.e. by registering the presence or absence of a characteristic ripple of the skin of the back of the animal. Every pricking which gives no skin contraction was counted. The test was repeated at regular intervals of 5 min, during an interval of 30 min from the end of the application period. The test gives an indication of onset time, depth and duration of block. The percentage block during the 25 min testing period was used as an index for efficiency. The test solution consisted of the test compound (base) dissolved to 10% (w/v, g/ml) in a mixture of isopropanol (65%: v/v), glycerol (25%: v/v) and water (10%: v/v).
The compound according to Example 1 (RAP 411) was tested also with varying concentrations and in the form of a hydrochloride salt in aqueous solution.

Data set [2] is described as follows: acute toxicity in mice (LD 50). The note with it: mouse, in vivo. How it is done: C. The acute toxicity for the base forms of a number of the new compounds were tested in mice.
Where [3] appears, read: 5% base in the alcoholic mixture.
The mark [4] stands for this setting: 10% (w/v) base in isopropanol 65%/glycerol 25%/water 10%, time of contact 30 min.
The mark [5] stands for this setting: 10% hydrochloride in aqueous solution.

As for `CCCN(CC)C(CC)C(=O)Nc1c(C)cccc1C` (centres unmarked) [Etidocaine, 2-(N-ethyl-n-propylamino)-2',6'-n-butyroxylidide], in the data set on sciatic nerve (conc. 0.5%, pH 6.0), the “Flexion reflex block, duration” value was determined as 84 ± 17 min; the “Flexion reflex block, onset” value fell in the range of 1 to 2 min; the “Motor paralysis, duration” value stood at 131 ± 13 min; the “Motor paralysis, onset” value is listed as 1 min. Moreover, the “LD 50 (base)” value in the data set on mice is 99 mg/kg.

Regarding `CCCCOc1ccccc1OCCN(C(C)C)C(C)C` [Example 1, 1-n-Butoxy-2-(2'-diisopropylaminoethoxy)-benzene], in data set [1] (setting [3]), the anesthesia result is on record as “complete anesthesia” and the “duration of complete anesthesia” value was “at least 30 min”. Also, the “Local anesthetic efficiency (percentage block during the 25 min testing period)” value in data set [1] (setting [4]) was found to be 99.3 ± 0.7%. Also, in the data set on sciatic nerve (conc. 0.5%, pH 6.0), the “Flexion reflex block, onset” value turned out to be 1 min and the “Motor paralysis, onset” value turned out to be 1 min. This compound showed a 50% lethal dose (LD50) in data set [2] (iv) of 15 mg/kg. The compound also yielded an LD50 in data set [2] (sc) of 250 mg/kg.

For the compound `CCCOc1ccccc1OCCN(C(C)C)C(C)C` [Example 2, 1-n-Propoxy-2-(2'-diisopropylaminoethoxy)-benzene], the “Local anesthetic efficiency (percentage block during the 25 min testing period)” value in data set [1] (setting [4]) is 98.6 ± 0.8%.

As to `CC(C)COc1ccccc1OCCN(C(C)C)C(C)C` [Example 3, 1-Isobutoxy-2-(2'-diisopropylaminoethoxy)-benzene], the “Local anesthetic efficiency (percentage block during the 25 min testing period)” value in data set [1] (setting [4]) was determined as 97.2 ± 2.8%. Moreover, the median lethal dose (LD50) in data set [2] (iv) is 14 mg/kg; in data set [2] (sc), 300 mg/kg.

Take `CCN(CC)CCOc1ccccc1OCC(C)C` [Example 4, 1-Isobutoxy-2-(2'-diethylaminoethoxy)-benzene]: the “Local anesthetic efficiency (percentage block during the 25 min testing period)” value in data set [1] (setting [4]) was 97.2 ± 2.8%. This compound also gave a 50% lethal dose (LD50) in data set [2] (iv) of 18 mg/kg.

`CCN(CC)CCCOc1ccccc1OCC(C)C` [Example 5, 1-Isobutoxy-2-(3'-diethylaminopropoxy)-benzene]: the “Local anesthetic efficiency (percentage block during the 25 min testing period)” value in data set [1] (setting [4]) was found to be 75.7 ± 9.4%. Also, the LD50 in data set [2] (iv) was 14 mg/kg.

On to `CCCCOc1ccccc1OCCN1CCCCC1` [Example 6, 1-n-Butoxy-2-(2'-piperidinoethoxy)-benzene], for which, in data set [1] (10% (w/v) base in alcoholic mixture, time of contact 15 min), the “Local anesthetic efficiency (percentage block during the 25 min testing period)” value is given as 79.2 ± 12.6%. This compound yielded an LD50 in data set [2] (iv) of 9 mg/kg.

As to `CCN(CC)CC(=O)Nc1c(C)cccc1C` [Lidocaine, diethylaminoacet-2,6-xylidide], in the data set with sciatic nerve (conc. 2.0%, pH 6.9), the “Flexion reflex block, duration” value stood at 57 ± 7 min; the “Flexion reflex block, onset” value is 1 to 2 min; the “Motor paralysis, duration” value was found to be 78 ± 5 min; the “Motor paralysis, onset” value turned out to be 1 min.

As for `CCCCOc1ccccc1OCCN(C(C)C)C(C)C.Cl` [RAP 411 hydrochloride, 1-n-butoxy-2-(2'-diisopropylaminoethoxy)-benzene hydrochloride], in data set [1] (setting [5]), the anesthesia entry was “complete anesthesia” and the “duration of complete anesthesia” value was “at least 30 min”.

For `CCN(CC)CCOc1ccccc1OC` [RAP 419, o-methoxy-(diethylaminoethoxy)-benzene, reference compound], the “Local anesthetic efficiency (percentage block during the 25 min testing period)” value in data set [1] (setting [4]) was 0%.
